Activity calls are given as the source filed them. The rule behind the calls is not given here.
How the values were obtained:
[1] = Inhibition of cupric ion-induced aggregation of amyloid beta (1 to 42) (unknown origin) at 50 uM measured after 24 hrs by dot blot assay
[2] = Antioxidant activity assessed as trolox equivalent of AAPH radical scavenging activity preincubated for 10 mins followed by AAPH challenge measured every min for 180 mins by ORAC-FL assay; type: functional
[3] = Inhibition of cupric ion-induced aggregation of amyloid beta (1 to 42) (unknown origin) at compound:amyloid beta (1 to 42):Cu2+ ratio of 2:1:1 measured after 24 hrs by TEM analysis
Mus musculus [4] = experiment: Cognitive enhancing effect against scopolamine-induced memory deficit in ICR mouse assessed as reduction in escape latency at 200 mg/kg, po administered through gavage 1 hr before scopolamine-challenge measured after 20 mins by passageway water maze test; type: functional, organism-based
Rattus norvegicus [5] = organism: Rattus norvegicus; experiment: Inhibition of rat serum BuChE at 40 uM using butyrylthiocholine as substrate measured after 20 mins by Ellman's method relative to control
SH-SY5Y = experiment: Neuroprotective activity in human SH-SY5Y cells assessed as protection against Cu2+ induced amyloid-beta (1 to 42) neurotoxicity by measuring increase in cell viability at compound:amyloid-beta (1 to 42):Cu2+ ratio of 2:1:1 after 24 hrs by MTT assay relative to control; type: functional, cell-based
[6] = Antioxidant activity assessed as inhibition of Cu2+-induced CCA […] to 7-hydroxy-CCA by measuring decrease in hydroxyl radical production at 10 uM in presence of ascorbate by fluorescence assay
Rattus norvegicus [7] = organism: Rattus norvegicus; experiment: Selectivity index, ratio of IC50 for rat serum BuChE to IC50 for rat cortex AChE
Mus musculus [8] = experiment: Cognitive enhancing effect against scopolamine-induced memory deficit in ICR mouse assessed as reduction in number of errors at 200 mg/kg, po administered through gavage 1 hr before scopolamine-challenge measured after 20 mins by passageway water maze test; type: functional, organism-based
[9] = Ratio of drug level in brain hippocampus to plasma in ICR mouse at 200 mg/kg administered through oral gavage; type: ADME, organism-based; details: read-out: logBB (converted)
[10] = Ratio of drug level in brain cortex to plasma in ICR mouse at 200 mg/kg administered through oral gavage; type: ADME, organism-based; details: read-out: logBB (converted)
[11] = Drug uptake in ICR mouse brain cortex at 200 mg/kg administered through oral gavage measured after 1 hr by LC-MS/MS analysis; type: ADME, organism-based; details: read-out: Drug uptake
[12] = Solubility of the compound in water measured after 24 hrs by HPLC analysis; type: physicochemical
[13] = Plasma concentration in ICR mouse at 200 mg/kg administered through oral gavage measured after 1 hr by LC-MS/MS analysis; type: ADME, organism-based
[14] = Drug uptake in ICR mouse brain hippocampus at 200 mg/kg administered through oral gavage measured after 1 hr by LC-MS/MS analysis; type: ADME, organism-based; details: read-out: Drug uptake

Structure (SMILES)	inhibition [1]	Activity (umolequiv/umol) [2]	inhibition [3]	Activity (Mus musculus [4])	inhibition (Rattus norvegicus [5]) [%]	Activity (SH-SY5Y)	inhibition [6]	Ratio IC50 (Rattus norvegicus [7])	Activity (Mus musculus [8])	Kp [9]	Kp [10]	concentration at 1 h [11] [ng/g]	solubility at 24 h [12] [µg/mL]	concentration at 1 h [13] [ng/mL]	concentration at 1 h [14] [ng/g]
CCCN(CCC)Cc1cn(-c2cc(NC(=S)NCC)ncn2)cn1	Active	1.28	Active	Active	32.8	Active	Active	> 196	Active	–	–	–	–	–	–
CCCN(CCC)Cc1cn(-c2cc(NC(=S)NCC)ncn2)cn1.Cl	–	–	–	–	–	–	–	–	–	0.324	0.141	296	3380	1740	579
